Experimental data as given in PMC5519986 (2017).

Assays:
[1] = tested on: dsDNA, dual labelled (FRET) (DNA, duplex) CAAAAATTTTTGCAAAAATTTTTG; test: FRET melting; settings: K+ (60 mM potassium cacodylate), pH 7.4, 100 nM DNA, 1 μM compound
[2] = tested on: c-MYC G-quadruplex DNA, dual labelled (FRET) (DNA, G4) GGGGAGGGTGGGGAGGGTGGGG; test: FRET melting; settings: K+ (60 mM potassium cacodylate), pH 7.4, 100 nM DNA, 1 μM compound
[3] = tested on: dsDNA (control duplex DNA) (DNA, duplex) CAAAAATTTTTGCAAAAATTTTTG; test: fluorescence titration (ligand fluorescence, Hill fit); settings: K+ (100 mM Tris-KCl), pH 7.4, 25 °C, 1 μM ligand titrated with DNA
[4] = tested on: c-MYC G-quadruplex DNA (DNA, G4) GGGGAGGGTGGGGAGGGTGGGG; test: as above; settings: K+ (100 mM Tris-KCl), pH 7.4, 25 °C, 1 μM ligand titrated with DNA

SMILES	ΔTm [1] [°C]	ΔTm [2] [°C]	KD [3] [nM]	KD [4] [nM]
CN(C)CCCNC(=O)c1ccc(-n2c3ccccc3c3cc(-c4cn(-c5ccc(N)cc5)nn4)ccc32)cc1	1.61±0.12	11.14±0.28	> 25000	510 ± 50
CN(C)CCCNC(=O)c1ccc(-n2c3ccccc3c3cc(-c4cn(CCCN(C)C)nn4)ccc32)cc1	8.41±0.21	8.17±0.41	880 ± 20	1130 ± 30
CN(C)CCCNC(=O)c1ccc(-n2cc(-c3ccc4c(c3)c3ccccc3n4-c3ccc(C(=O)NCCCN(C)C)cc3)nn2)cc1	0.86±0.04	19.3±0.96	> 30000	170 ± 10
